According to patent publication US5126258A (priority 1988, dated 1992):

What was measured:
[1] = Spontaneous (uncatalyzed, background) hydrolysis; assay type: physicochemical; set-up: key to Spon. (spontaneous hydrolysis), symbol: --: No hydrolysis observed; conditions: for Spon. (spontaneous hydrolysis), symbol: pH 8.0
Procedure: The practical range of pH for the assay is limited by the rapid spontaneous rate of hydrolysis of an ester Compound 5 above pH 8.0. Initially, the ester was used at a concentration that was about four-fold greater than that of the protein, and the mixture was incubated at pH 7.2 for 10 minutes. Any change in fluorescence above background was noted.
The lack of spectroscopic distinction between such esters and their hydrolysis products recommended a chromatographic analysis of the process. Referring to FIG. 3, a mixture of Compound 7 (5 uM) and the monoclonal antibody from hybridoma P3 6D4 (0.1 uM) in phosphate buffer (50 mM, pH 8.0) was analyzed over time by high performance liquid chromatography (HPLC). The accelerated hydrolysis of the ester was apparent from the decrease of its peak and the concurrent increase in two new peaks that correspond with the expected products. Under these conditions, the ester is completely consumed in 60-80 minutes during which time the background rate accounts for about 12 to 16 percent hydrolysis. The chromatographic profile is the same as that produced by treatment with hog liver esterase.
^c The rate constants were determined spectrophotometrically (at 245
nm) by measuring initial rates at five concentrations of ester.
(§1) ^1 Preliminary initial hydrolyses shown as the percentage of admixed
(§2) reactant ligand consumed for catalyzed and spontaneous hydrolyses. "--" =
(§3) No hydrolysis observed. "NT" = Not tried. All reactions were carried out
(§4) at pH 8.0 in a 50 mM phosphate buffer unless otherwise noted. Hydrolytic
(§5) percentages were determined by HPLC using a Hitachi model 655A12 liquid
(§6) chromatograph with a C18 Vydac 201TP54 column, except as noted below.
(§7) Mixtures of acetonitrile a nd water containing 0.1 percent trichloroaceti
(§8) acid [28:72-50:50 (v/v)] were used as elutant. Hydrolyses of Compounds 5
(§9) and 20 were assayed using fluorescence data.
(§10) ^5 Spontaneous hydrolytic percentages for the time period indicated.
(§11) Reaction kinetics were studied using three reactant ligands as substrates for monoclonal receptors 37G2 and 22F5. Data from initial rates were consistent with Michaelis-Menten reaction mechanism for a usual enzyme-substrate system. Initial rates were followed using at 271 nm using a U.V.-visible spectorphotometer for Compound 17, and a fluorescence spectrometer for Compounds 5 and 20, using an excitation wavelength of 355 nm and an emission wavelength of 455 nm for both compounds.

21G2 = assay: Hydrolysis of reactant ligands by receptor 21G2; assay type: biochemical, mouse; set-up: key to hydrolysis by 21G2, symbol: --: No hydrolysis observed; conditions: pH 8.0; for hydrolysis by 21G2, symbol: 19: 2/5 uM, 21: 5/10 uM receptor/ligand
Procedure: as §1, §2, §3, §4, §5, §6, §7, §8, §9
(§12) ^2 Concentrations of receptor molecules (Rec.) and reactant ligands
(§13) (Lig.) in micromolar units, presuming a molecular weight of 150,000
(§14) daltons for each receptor molecule.
(§15) ^3 Reactant ligand (Lig.) used as substrate.
(§16) ^4 Time in hours that the reaction was permitted to take place.
as §10
(§17) ^6 Reaction carried out at pH 7.2 in a 50 mM phosphate buffer.

7E5 = assay: Hydrolysis of reactant ligands by receptor 7E5; assay type: biochemical, mouse; set-up: key to hydrolysis by 7E5, symbol: --: No hydrolysis observed; conditions: pH 8.0; for hydrolysis by 7E5, symbol: 19: 2/5 uM, 21: 5/10 uM receptor/ligand
Procedure: as §1, §2, §3, §4, §5, §6, §7, §8, §9, §12, §13, §14, §15, §16, §10, §17

37G2 = assay: Hydrolysis of reactant ligands by receptor 37G2; assay type: biochemical, mouse; set-up: key to hydrolysis by 37G2, symbol: --: No hydrolysis observed; conditions: pH 8.0; for hydrolysis by 37G2, symbol: 19: 2/5 uM, 21: 5/10 uM receptor/ligand
Procedure: as §1, §2, §3, §4, §5, §6, §7, §8, §9, §12, §13, §14, §15, §16, §10, §17

13E10 = assay: Hydrolysis of reactant ligands by receptor 13E10; assay type: biochemical, mouse; set-up: key to hydrolysis by 13E10, symbol: --: No hydrolysis observed; conditions: pH 8.0; for hydrolysis by 13E10, symbol: 19: 2/5 uM, 21: 5/10 uM receptor/ligand
Procedure: as §1, §2, §3, §4, §5, §6, §7, §8, §9, §12, §13, §14, §15, §16, §10, §17

1209 = assay: Hydrolysis of reactant ligands by receptor 12C9 (column head prints 1209); assay type: biochemical, mouse; set-up: key to hydrolysis by 1209, symbol: --: No hydrolysis observed; conditions: pH 8.0; for hydrolysis by 1209, symbol: 19: 2/5 uM, 21: 5/10 uM receptor/ligand
Procedure: as §1, §2, §3, §4, §5, §6, §7, §8, §9, §12, §13, §14, §15, §16, §10, §17

44A2 = assay: Hydrolysis of reactant ligands by receptor 44A2; assay type: biochemical, mouse; set-up: key to hydrolysis by 44A2, symbol: --: No hydrolysis observed; conditions: pH 8.0; for hydrolysis by 44A2, symbol: 19: 2/5 uM, 21: 5/10 uM receptor/ligand
Procedure: as §1, §2, §3, §4, §5, §6, §7, §8, §9, §12, §13, §14, §15, §16, §10, §17

17G8 = assay: Hydrolysis of reactant ligands by receptor 17G8; assay type: biochemical, mouse; set-up: key to hydrolysis by 17G8, symbol: --: No hydrolysis observed; conditions: pH 8.0; for hydrolysis by 17G8, symbol: 19: 2/5 uM, 21: 5/10 uM receptor/ligand
Procedure: as §1, §2, §3, §4, §5, §6, §7, §8, §9, §12, §13, §14, §15, §16, §10, §17

22F5 = assay: Hydrolysis of reactant ligands by receptor 22F5; assay type: biochemical, mouse; set-up: key to hydrolysis by 22F5, symbol: --: No hydrolysis observed; conditions: pH 8.0; for hydrolysis by 22F5, symbol: 19: 2/5 uM, 21: 5/10 uM receptor/ligand
Procedure: as §1, §2, §3, §4, §5, §6, §7, §8, §9, §12, §13, §14, §15, §16, §10, §17

[2] = test system: eight monoclonal receptors 21G2, 7E5, 37G2, 13E10, 12C9, 44A2, 17G8 and 22F5; assay: Catalyzed hydrolysis of reactant ligands by the eight QPN1 monoclonal receptors, summary; assay type: biochemical, mouse; conditions: pH 8.0
Procedure: Mice were hyperimmunized with the Compound 13-KLH conjugate over a three to four week time period. Sera were assayed in an ELISA using a Compound 13-BSA conjugate bound to microtiter plate wells as the solid-phase antigen. Cloned hybridomas were also screened using that ELISA assay.
Each of those catalyses could be inhibited by an appropriate analog-ligand. Thus, a relatively high percentage of induced monoclonal receptors was capable of catalyzing an esterolytic reaction. The reason for this relatively high percentage of useful receptors being induced is unknown, but could be due to the presence of phosphonamidate group nitrogen atom, as compared to a phosphonate oxygen atom, or to the quinoline nucleus of the analog-ligand. Those eight catalytic monoclonal receptors and the hybridomas that secrete them are identified by the laboratory designations "QPN1 7E5", "QPN1 12C9", "QPN1 13E10", "QPN1 17G8", "QPN1 21G2", "QPN1 22F5", "QPN1 37G2" and QPN1 44A2. The prefix "QPNI" is sometimes omitted herein when discussing these hybridomas and receptors.
Amide cleavage for Compounds 14 and 15 was assayed by analyzing for the production of free aminoquinaldine or aminonaphthalene by measuring the increase in the azo dye that results from derivatizing the free aminoquinaldine or aminonapthalene with a diazotization reagent.
Catalysis reactions were conducted by preparing a reaction admixture of 100 microliters (ul) total volume containing 5 micromolar (uM) monoclonal antibody, 50-75 uM amide reactant ligand substrate and a buffer described hereinafter. The buffer included in the above admixture varied depending upon the pH utilized as follows: pH 5, 10 […] sodium acetate, 10 mM sodium chloride; pH 7.2, 10 mM sodium phosphate, 0.15 molar (M) sodium chloride; pH 8.0; 50 mM sodium phosphate. The amide-containing substrates screened in this assay were added to the above admixture in 1 ul of a 100-fold concentrated stock solution of dimethyl formamide (DMF). Monoclonal antibody was added to the above admixture from a concentrated stock solution. The resulting admixture was placed into the well of a 96 well flat bottom microtiter plate (Costar, Cambridge, Mass.) and maintained in a moist vapor environment chamber at 23 degrees C. The production of aminoquinaldine or aminonaphthalene was then assayed as described below after 2,3,5, or 6 days.
The aminoquinaldine or aminonapthalene product produced by the catalyzed reaction was measured by first admixing 20 ul of 5M HCl, 80 ul acetone and 10 ul 0.5% (w/v) sodium nitrite to the reaction admixture to form a second admixture and maintaining that second admixture for 3 minutes at room temperature. Thereafter, 10 ul 2.5% (w/v) ammonium sulfamate was added to form a third admixture that was maintained for 2 minutes at room temperature. A still further 10 ul of 0.5% (w/v) N-(1-napthyl)ethylenediamine dihydrochloride was added to form a fourth admixture that was then maintained for 15 minutes at room temperature. Thereafter the resulting azo dye present in the fourth admixture was measured by absorbance spectroscopy at 540 nanometers (nm) for aminoquinaldine using a Model EL 309 Automated Microplate Reader (Bio-Tek Instruments, Winooski, Vt.).

Monoclonal Receptor 22F5 = assay: Kinetics of hydrolysis by receptor 22F5; assay type: biochemical, mouse
From the text: as §11
Lineweaver-Burke plots for the catalyzed hydrolysis of Compounds 17, 5 and 20 obtained in the presence and absence of Compound 12i as inhibitor were prepared as discussed for FIG. 4. In particular, Compound 17 was present at concentrations of 1-16 uM with inhibitor concentrations of 100 and 300 nanomolar (nM). Compound 5 was present at concentrations of 1-10 uM with inhibitor concentrations of 100 and 200 nM. Compound 20 was present at concentrations of 2-20 uM with inhibitor concentrations of 25 and 100 nM.
*Fluorescence assays using Compounds 20 and 5 were carried out in a
PerkinElmer fluorescence spectrophotometer (moded LS5; Oakbrook, IL) usin
200 nanomolar receptor (based on a molecular weight of 150,000 daltons) i
50 mM phosphate buffer at a pH value of 8.0. The reactant ligand was
dissolved in dioxane and admixed in the amounts discussed above. Two
milliliters of reaction solution were utilized as was a dioxane
concentration of 2 percent by volume. […]

[3] = receptor/ligand uM, time h: 17 1/10, 2, 18 2/10, 24, 20 2/10, 0.33, 5 1/5, 0.33, 22 5/10, 3.5, preliminary

Compound | Spon. (spontaneous hydrolysis), symbol [1] | hydrolysis by 21G2, symbol (21G2) | hydrolysis by 7E5, symbol (7E5) | hydrolysis by 37G2, symbol (37G2) | hydrolysis by 13E10, symbol (13E10) | hydrolysis by 1209, symbol 1209 | hydrolysis by 44A2, symbol (44A2) | hydrolysis by 17G8, symbol (17G8) | hydrolysis by 22F5, symbol (22F5) | receptors (of eight) that catalyzed hydrolysis of the compound [2] | also measured
COC(=O)Cc1ccc(NC(C)=O)cc1 [Compound 19] | -- | -- | -- | -- | -- | -- | -- | -- | -- | none of the receptors | 
CC(=O)Nc1ccc(CC(=O)Oc2ccc3c(C)cc(=O)oc3c2)cc1 [Compound 20] |  |  |  |  |  |  |  |  |  | Only those same five receptors | Spon. (spontaneous hydrolysis) ([1]; pH 8.0, 50 mM phosphate, time (h): 17 2, 18 24, 20 0.33, 5 0.33, 22 3.5): 14 percentage of reactant ligand; hydrolysis by 21G2 (21G2; [3]): 36 percentage of reactant ligand; hydrolysis by 7E5 (7E5; [3]): 15 percentage of reactant ligand; hydrolysis by 37G2 (37G2; [3]): 39 percentage of reactant ligand; hydrolysis by 13E10 (13E10; [3]): 16 percentage of reactant ligand; hydrolysis by 1209 1209; [3]: 16 percentage of reactant ligand; hydrolysis by 44A2 (44A2; [3]): 33 percentage of reactant ligand; hydrolysis by 17G8 (17G8; receptor/ligand uM, time h: 18 2/10, 24, 20 2/10, 0.33, 5 1/5, 0.33, 22 5/10, 3.5, preliminary): 20 percentage of reactant ligand; hydrolysis by 22F5 (22F5; [3]): 48 percentage of reactant ligand; Km (Monoclonal Receptor 22F5; 50 mM phosphate pH 8.0, 200 nM receptor, 2% dioxane, figure = Km × 10^6): 5 µM; kcat (Monoclonal Receptor 22F5; pH 8.0): 0.023 s⁻¹; Vmax (Monoclonal Receptor 22F5; pH 8.0, 200 nM receptor, figure = Vmax × 10^9): 0.27 µM/min
CC(=O)Nc1ccc(CC(=O)Oc2ccccc2NC(C)=O)cc1 [Compound 21] | -- | -- | -- | -- | -- | -- | -- | -- | -- | lack of hydrolysis | 
